{"source": "patent US8889680B2", "about": "“Treatment or prevention of fungal infections with PDK1 inhibitors” (priority 2010, dated 2014)", "key": {"C. albicans biofilms": {"test_system": "C. albicans biofilms", "test": "Biofilm XTT reduction assay of metabolic activity", "assay_type": "cell-based, Candida albicans", "conditions": "at higher concentrations than those active against planktonic cells", "method": "Filled circles indicate growth and clear circles indicate no detectable turbidity. The lowest concentration of drug resulting in no growth is defined as the MIC. […] Metabolic activity was determined using the XTT assay.\nSC5314 biofilms were generated in microtiter plates for 48 hours and treated with OSU-03012 for 24 hours before being subject to an XTT reduction assay of metabolic activity.\n(§1) The antifungal activity of protein kinase inhibitors was determined using the Clinical and Laboratory Science Institute microdilution protocol M-27A2. Biofilm antifungal activity was determined using the protocol of Pierce et al. and is reported as MIC50S (Pierce et al., Nat. Protoc. 3:1494-1500 (2008)). Disk diffusion assays were performed as described previously (Roelants et al., Microbiology 150:3289-304 (2004))."}, "C. neoformans": {"test_system": "C. neoformans", "test": "Antifungal susceptibility (microdilution MIC), C. neoformans", "assay_type": "cell-based, Cryptococcus neoformans", "method": "as §1\n(FIG. 3A). […] Since the echinocandin class of cell wall-targeted 1,3-β-glucan synthase inhibitors is not active against C. neoformans, this represents one of the few cell wall-targeted molecules with activity against this important pathogen."}, "C. albicans [1]": {"test_system": "C. albicans", "test": "Checkerboard interaction assay (FIC)", "assay_type": "cell-based, Candida albicans", "method": "This assay allows one to compare the activity of a molecule alone and in combination with another molecule by generating a fractional inhibitory concentration (FIC). FIC for two drugs (A & B) is calculated as follows: […]. FIC values less than 0.5 are considered synergistic; between 0.5 and 1 are additive; between 1-2 are indifferent; and above 2 are antagonistic. […] Therefore, KP-372-1 is not synergistic with either agent."}, "C. albicans [2]": {"test_system": "C. albicans", "test": "Antifungal susceptibility (microdilution MIC), C. albicans", "assay_type": "cell-based, Candida albicans", "method": "as §1\nTo identify PKIs that disrupt yeast cell wall integrity, a four-part screening strategy as outlined in FIG. 1A was designed. The primary screen in the approach detects molecules that cause yeast cells to lyse, a characteristic phenotype of yeast cell wall damage, by use of an assay that detects the release of adenylate kinase (AK) to the growth medium as a reporter of yeast cell lysis. Previously it was shown that the AK assay in HTS format can detect as few as 500 lysed yeast cells in a sample of 10^5 cells (Didone et al., Nat. Protocol. 5:1107-14 (2010)). PKIs that cause yeast cells lysis (hits) were then re-confirmed by AK dose-response assays and tested for in vitro antifungal activity against the human fungal pathogen C. albicans using standard microdilution susceptibility testing. Last, to select PKIs specific for the CWI signaling pathway, the set of hits were tested for their ability to block the activation of a transcriptional reporter of the CWI-signaling pathway. […]"}, "[3]": {"test_system": "C. albicans strain SC5314", "test": "Mouse model of candidiasis, kidney fungal burden", "assay_type": "in vivo", "conditions": "BALB/c mice, 100 mg/kg per day by oral gavage in peanut oil, 2 days, C. albicans SC5314 i.v.", "method": "(§2) YPD cultures were incubated at 37° C. for 30 hours in the presence of the indicated drugs and combinations. Aliquots were diluted and plated on YPD at 30° C. to determine inoculum. […] BALB/c mice (n=5 per group) were treated with 100 mg/kg OSU-03012 per day by oral gavage after inoculation with C. albicans SC5314 by tail vein injection for 2 days and kidney fungal burden was determined.\nOn the day of inoculation (DO), BALB/c mice were restrained in a mechanical restrainer and inoculated with C. albicans strain SC5314 suspended in saline (1×10^5 cfu/animal) via lateral tail vein injection. OSU-03012 (100 mg/kg) in peanut oil was given by gavage to half the animals (n=5) and peanut oil alone was given to the other half of animals on the day of inoculation and on the following day. ON D2, the animals were sacrificed and the kidneys harvested. The kidneys were homogenized and dilutions were plated on yeast peptone dextrose plates containing gentamicin and vancomycin. The plates were incubated at 30° C. for one day and colony forming units per kidney were determined by standard methods. Differences between treatment and no treatment groups were analyzed by Student's t test with a statistically significant effect defined as P<0.05."}, "C. neoformans H99": {"test_system": "C. neoformans H99", "test": "Time-kill evaluation in combination with fluconazole", "assay_type": "cell-based, Cryptococcus neoformans", "conditions": "C. neoformans H99, YPD, 37° C., 30 hours", "method": "as §2\nTo determine if the combination of OSU-03012 and fluconazole was fungicidal, overnight cultures of C. neoformas strain H99 were diluted to 1.5×10^4 cells/ml in yeast peptone dextrose containing either: dimethyl sulfoxide (DMSO) (1% final concentration); fluconazole (2 μg/ml/1% DMSO); OSU-03012 (2 μg/ml/1% DMSO); or OSU-03012 and fluconazole (2 μg/ml each/1% DMSO). The cultures were incubated at 37° C. for 30 hours. Aliquots were removed at 0, 3, 6, 24, and 30 hours; diluted and plated on yeast peptone dextrose plates. The plates were incubated at 30° C. for 48 hours and colony forming units per ml determined by standard methods. It was determined that the combination of OSU-03012 and fluconazole was fungicidal (FIG. 9A)."}, "human cells": {"test_system": "human cells", "conditions": "cited from earlier work"}, "[4]": {"test_system": "C. albicans clinical reference strain SC5314", "test": "Adenylate kinase (AK) release assay of yeast cell lysis", "assay_type": "cell-based, Candida albicans", "set-up": "dose or concentration left out as unconfirmed", "conditions": "extracellular AK activity relative to DMSO-treated cells", "method": "AK assays were performed according to a recently published protocol (Didone et al., Nat. Protocol. 5:1107-14 (2010)) using the 96-well plate version using the Toxi-Light Assay kit (Lonza; Basel, Switzerland). Luminescence was measured using a SpectraMax plate reader (Molecular Devices; Sunnyvale, Calif.). […] To identify PKIs that disrupt yeast cell wall integrity, a four-part screening strategy as outlined in FIG. 1A was designed. The primary screen in the approach detects molecules that cause yeast cells to lyse, a characteristic phenotype of yeast cell wall damage, by use of an assay that detects the release of adenylate kinase (AK) to the growth medium as a reporter of yeast cell lysis. […] Last, to select PKIs specific for the CWI signaling pathway, the set of hits were tested for their ability to block the activation of a transcriptional reporter of the CWI-signaling pathway. To rapidly survey a sample of well-characterized PKIs, the commercially available InhibitorSelect collection, a library of 80 PKIs with diverse mechanistic and structural characteristics, was utilized. C. albicans clinical reference strain SC5314 was screened against the InhibitorSelect library for molecules that caused a release of AK into the growth medium."}, "[5]": {"test_system": "CWI pathway reporter Rlm1-lacZ", "test": "β-Galactosidase CWI pathway reporter assay (Rlm1-lacZ)", "assay_type": "cell-based", "conditions": "sub-inhibitory concentrations (1/2 MIC), S. cerevisiae", "method": "Bars indicate mean fold change in Miller units of β-galactosidase activity relative to logarithmic phase cells without calcofluor or PKI. Error bars indicate standard deviation of three independent trials performed in triplicate. […] The percentage of cells with PI uptake was determined by fluorescence.\nLogarithmic phase S. cerevisiae (BY4741) cells harboring the pRLM1-lacZ plasmid were transferred to a 96-well plate, and treated with Calcofluor white ([…])+/−protein kinase inhibitor at sub-inhibitory concentrations (1/2MIC). The cells were incubated at room temperature for 5 hours and processed for β-galactosidase activity using the ThermoScientific Yeast β-galactosidase kit according to the manufacturer's instructions (Pierce; Rockford, Ill.). β-galactosidase activity was determined by measuring OD420 using a SpectraMax Plate reader (Molecular Devices) and expressed as fold change in Miller units (nmole/mg/min) relative to untreated cells. Each experiment was performed in duplicate with three independent isolates.\nThe novel, antifungal PKIs identified in the primary screen were evaluated for their ability to block CWI pathway signaling using a reporter construct that contains two copies of the consensus binding site for the CWI-pathway-regulated transcription factor Rlm1 fused to the β-galactosidase gene (Jung et al., Mol. Microbiol. 46:781-9 (2002)). […]"}, "[6]": {"conditions": "C. albicans growth assay, Table 1"}, "[7]": {"conditions": "Candida albicans, C. albicans growth assay, Table 1, read-out: MIC"}}, "note": "Like-named read-outs stand apart in the source and are kept apart here."}
{"compound": "CN[C@@H]1C[C@H]2O[C@@](C)([C@@H]1OC)n1c3ccccc3c3c4c(c5c6ccccc6n2c5c31)C(=O)N[C@@H]4O", "note": "[UCN-01]", "values": [{"measurement": "activity against C. albicans biofilms (in words)", "setting": "C. albicans biofilms", "value": "showed activity"}, {"measurement": "antifungal activity (in words)", "setting": "C. neoformans", "value": "good antifungal activity"}, {"measurement": "FIC (fractional inhibitory concentration)", "setting": "C. albicans [1]; combination with caspofungin", "value": 1.0}, {"measurement": "FIC (fractional inhibitory concentration)", "setting": "C. albicans [1]; combination with fluconazole", "value": 0.3}, {"measurement": "antifungal activity (in words)", "setting": "C. albicans [2]; C. albicans", "value": "good antifungal activity"}]}
{"compound": "NCC(=O)Nc1ccc(-n2nc(C(F)(F)F)cc2-c2ccc3c(ccc4ccccc43)c2)cc1", "note": "[OSU-03012]", "values": [{"measurement": "in vivo activity (kidney fungal burden)", "setting": "[3]", "value": "in vivo activity against C. albicans infection"}, {"measurement": "activity against C. albicans biofilms (in words)", "setting": "C. albicans biofilms", "value": "showed activity"}, {"measurement": "antifungal activity (in words)", "setting": "C. neoformans", "value": "good antifungal activity"}, {"measurement": "MIC", "setting": "C. neoformans; Cryptococcus neoformans, FIG. 7 legend", "value": 4, "unit": "µg/mL"}, {"measurement": "interaction with fluconazole", "setting": "C. neoformans H99", "value": "synergistic"}, {"measurement": "time-kill result of the combination", "setting": "C. neoformans H99; OSU-03012 and fluconazole 2 μg/ml each", "value": "fungicidal"}, {"measurement": "concentration tolerated in human cells", "setting": "human cells", "value": 8000, "unit": "ng/mL"}, {"measurement": "antifungal activity (in words)", "setting": "C. albicans [2]; C. albicans", "value": "good antifungal activity"}, {"measurement": "MIC", "setting": "C. albicans [2]; Candida albicans, C. albicans, FIG. 7 legend, read-out: MIC", "value": 3, "unit": "µg/mL"}]}
{"compound": "NCCNc1ncc(C(N)=O)c(Nc2cccc(C(F)(F)F)c2)n1", "note": "[Sykll]", "values": [{"measurement": "Fold increase in AK release", "setting": "[4]", "value": 14, "unit": "Fold"}, {"measurement": "Rlm1-lacZ reporter activity induced by Calcofluor white", "setting": "[5]", "value": "completely abolished reporter activity"}, {"measurement": "MIC", "setting": "C. albicans [2]; [6]", "value": 9, "unit": "µg/mL"}]}
{"compound": "CN[C@@H]1C[C@H]2O[C@@](C)([C@@H]1OC)n1c3ccccc3c3c4c(c5c6ccccc6n2c5c31)C(=O)NC4", "note": "[Staurosporine]", "values": [{"measurement": "Fold increase in AK release", "setting": "[4]", "value": 48, "unit": "Fold"}, {"measurement": "MIC", "setting": "C. albicans [2]; [7]", "value": 0.5, "unit": "µg/mL"}]}
{"compound": "CC[n+]1c(/C=C/N(C)c2ccccc2)n(-c2ccccc2)c2ccc(-c3nc4ccccc4s3)cc21.[I-]", "note": "[Akt IV]", "values": [{"measurement": "Fold increase in AK release", "setting": "[4]", "value": 12, "unit": "Fold"}, {"measurement": "MIC", "setting": "C. albicans [2]; [6]", "value": 9, "unit": "µg/mL"}]}
{"compound": "COc1ccc2c(c[n+](C)c3c4cc5c(cc4ccc23)OCO5)c1OC", "note": "[Chelerythine]", "values": [{"measurement": "Fold increase in AK release", "setting": "[4]", "value": 5, "unit": "Fold"}, {"measurement": "MIC", "setting": "C. albicans [2]; [6]", "value": 125, "unit": "µg/mL"}]}
{"compound": "O=C(Nc1cccc(Nc2ncc(Br)c(NCCc3cnc[nH]3)n2)c1)N1CCCC1", "note": "[BX-912]", "values": [{"measurement": "MIC (growth inhibition)", "setting": "C. neoformans", "value": "≥ 64", "unit": "µg/mL"}, {"measurement": "MIC (growth inhibition)", "setting": "C. albicans [2]; C. albicans, planktonic", "value": "≥ 64", "unit": "µg/mL"}]}
{"compound": "Herbymicin", "values": [{"measurement": "Fold increase in AK release", "setting": "[4]", "value": 127, "unit": "Fold"}, {"measurement": "MIC", "setting": "C. albicans [2]; [6]", "value": 40, "unit": "µg/mL"}]}
{"compound": "CO[C@H]1C[C@@H]2CC[C@@H](C)[C@@](O)(O2)C(=O)C(=O)N2CCCC[C@H]2C(=O)O[C@H]([C@H](C)C[C@@H]2CC[C@@H](O)[C@H](OC)C2)CC(=O)[C@H](C)/C=C(\\C)[C@@H](O)[C@@H](OC)C(=O)[C@H](C)C[C@H](C)/C=C/C=C/C=C/1C", "note": "[Rapamycin]", "values": [{"measurement": "Fold increase in AK release", "setting": "[4]", "value": 17, "unit": "Fold"}, {"measurement": "MIC", "setting": "C. albicans [2]; [7]", "value": 100, "unit": "µg/mL"}]}
